Patent US11459375B2, “Cyclic peptides for the treatment of Graves' disease” (advanceCOR GmbH, priority 2017, dated 2022)
Peptide text beside a SMILES is read from it.

How the values were obtained:
[1] = test system: Ad-TSHR-immunized mice; assay: retro-orbital fibrosis by digitized image analysis of orbital sections; format: in vivo, BALB/c mice; settings: 1 mg/kg IV 4-weekly, Masson's stain
Procedure: FIG. 6 summarizes the results of histological investigation of orbital sections. […] The sections were taken at defined distances from the mouse bregma. Interstitial connective tissue was then stained in green (Masson's trichrome stain). For clarity, both HE stained sections (left panels) and Masson's stained sections (right panels) are shown next to each other. FIG. 6B: the effects of peptide therapy on severity of retro-orbital fibrosis were evaluated in histological sections of all available animals. The measurements were carried out in Ad-TSHR-immunized mice treated by either 4-weekly injections with vehicle (0.9% NaCl, “Graves' no therapy”, n=9 mice), or administrations of 1 mg/kg body weight of peptide 836 (11 mice) or TSHR-Fc (11 mice). […] The mean total fibrosis volumes of each right and left orbita, as assessed by digitized image analysis of all sections, and consecutive integrations, are shown with SEM. […]
After euthanasia, dissection of the thyroid glands was performed under a stereomicroscope, as described before (22). […] Thyroid volumes (mm^3) were calculated from the sum of the areas of each section over the whole cutting region. Myocardial volumes (mm^3) were calculated in a similar way as described for thyroid glands from the sum of the areas of each section over whole cutting region (5 to 6 slides, depending on respective size of the hearts). […]

[2] = test system: immunologically naïve mice; settings: mouse, in vivo, iv, 1 mg/kg
Procedure: BALB/c mice were adapted for at least one week to start experiments at the age of 12 weeks. Animals were kept as described before. […] Peptides (either 1 mg/kg body weight or NaCl vehicle control) were given by IV injection into a tail vein of these naïve mice (n=5 per group), and then continued at 4-weekly intervals for 6 months, as described before for the therapeutic study in immunized mice. Serum samples were taken at identical intervals.
1) “3rd generation assay”: Antibodies against TSHR were detected by a commercially available 3rd generation enzyme immunoassay provided by RSR Limited, Avenue Park, Pentwyn, Cardiff, U.K., in which the of the human Graves patient-derived M22 monoclonal antibody and serum antibodies compete for binding sites on immobilized TSHR. […] The assay was performed using 30 μl 1:10 (PBS) diluted serum in at least double determination according to the manufacturer's instructions.

[3] = test system: Ad-TSHR-immunized mice; assay: qualitative histological investigation of the thyroid; format: in vivo, BALB/c mice; settings: 9x AdTSHR-treated mice, 1 mg/kg IV 4-weekly
Procedure: After euthanasia, dissection of the thyroid glands was performed under a stereomicroscope, as described before (22). Briefly, cross cuts at the level above the larynx and below the seventh cartilage ring were made and the glands with the tracheae and oesophagi were removed from the necks. Tissue blocks were kept in 4% neutral para-formaldehyde (PFA), washed in PBS 3 times and embedded in optimum cutting temperature (OCT) formulation (Tissue-Tek® O.C.T.™ compound, VWR Chemicals, Leuven, Belgium). Consecutive 5 μm-thick cross sections were cut at a fixed distance of 500 μm using a Leica microtome CM 1850 Cryostat (temperature at −19° C.) and mounted on Thermo Polysine slides (Thermo Scientific, Cat J2800AMNZ). The collected sections represented a total distance of ˜5-6 mm, and covered the whole thyroid region of each animal. The tissue sections were then stained with hematoxylin-eosin (HE) and examined using bright field illumination on a Zeiss upright microscope. Thyroid volumes (mm^3) were calculated from the sum of the areas of each section over the whole cutting region. Myocardial volumes (mm^3) were calculated in a similar way as described for thyroid glands from the sum of the areas of each section over whole cutting region (5 to 6 slides, depending on respective size of the hearts). The method has been described before (22). […]

Row | Molecule | retro-orbital fibrosis [1] | anti-TSHR antibody titers in naive mice [2] | generation of anti-TSHR antibodies [2] | mean histological scores of the thyroid [3]
1 | CC[C@H](C)[C@@H]1NC(=O)[C@H](C(C)C)NC(=O)[C@H]([C@@H](C)O)NC(=O)[C@H](CC(C)C)NC(=O)[C@H](Cc2ccc(O)cc2)NC(=O)[C@H](CCCCN)NC(=O)[C@H](CC(N)=O)NC(=O)[C@H](CCCCN)NC(=O)[C@H](CC(N)=O)NC(=O)[C@H](CC(C)C)NC(=O)[C@H](Cc2ccc(O)cc2)NC(=O)[C@H](C(C)C)NC(=O)[C@H](C)NC(=O)[C@H](CC(=O)O)NC(=O)[C@H](CC(C)C)NC(=O)[C@H](CCCCN)NC(=O)[C@H]([C@@H](C)O)NC(=O)CNC(=O)[C@H](CC(N)=O)NC(=O)[C@H](Cc2ccccc2)NC(=O)[C@H](C)NC(=O)[C@H](Cc2ccc(O)cc2)NC(=O)CNC(=O)[C@H](CC(=O)O)NC1=O [peptide 836] (cyclo(GYAFNGTKLDAVYLNKNKYLTVID)) | completely reversed | below background | not observed in any of the 6 animals | –
2 | TSHR-Fc: fusion protein: first 289 amino acids of human TSH receptor (A-subunit), GGR linker and Fc portion of human IgG2 | – | – | – | markedly better compared to the vehicle-treated group
